The target of test [1] is Disintegrin and metalloproteinase domain-containing protein 17 (Homo sapiens, UniProt P78536). In words: Inhibition of TNF-alpha production from LPS stimulated human whole blood. The class given is functional, tissue-based.
Test [2] addresses T1, Interstitial collagenase (Homo sapiens, UniProt P03956).
T1 sequence (P03956 whole entry): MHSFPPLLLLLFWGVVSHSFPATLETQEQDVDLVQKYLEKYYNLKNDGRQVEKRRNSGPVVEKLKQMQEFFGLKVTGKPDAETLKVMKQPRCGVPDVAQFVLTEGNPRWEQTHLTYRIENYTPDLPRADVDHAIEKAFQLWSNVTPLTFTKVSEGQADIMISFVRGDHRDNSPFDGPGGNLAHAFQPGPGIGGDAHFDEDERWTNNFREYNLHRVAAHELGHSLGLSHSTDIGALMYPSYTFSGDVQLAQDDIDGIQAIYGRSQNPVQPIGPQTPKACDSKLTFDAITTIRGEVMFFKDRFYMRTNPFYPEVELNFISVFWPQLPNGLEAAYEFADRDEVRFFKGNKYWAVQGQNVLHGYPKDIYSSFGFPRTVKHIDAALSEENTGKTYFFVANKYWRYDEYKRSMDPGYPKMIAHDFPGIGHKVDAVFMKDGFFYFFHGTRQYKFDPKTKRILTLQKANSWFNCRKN
In words: In vitro inhibition of Matrix metalloprotease-1.

For test [3], the target named is Disintegrin and metalloproteinase domain-containing protein 17 (Sus scrofa, UniProt O77636). The test can be described thus: In vitro inhibition of TNF-alpha converting enzyme.
Disintegrin and metalloproteinase domain-containing protein 17 (Sus scrofa, UniProt O77636), sequence (O77636 whole entry, the tested form may be a part): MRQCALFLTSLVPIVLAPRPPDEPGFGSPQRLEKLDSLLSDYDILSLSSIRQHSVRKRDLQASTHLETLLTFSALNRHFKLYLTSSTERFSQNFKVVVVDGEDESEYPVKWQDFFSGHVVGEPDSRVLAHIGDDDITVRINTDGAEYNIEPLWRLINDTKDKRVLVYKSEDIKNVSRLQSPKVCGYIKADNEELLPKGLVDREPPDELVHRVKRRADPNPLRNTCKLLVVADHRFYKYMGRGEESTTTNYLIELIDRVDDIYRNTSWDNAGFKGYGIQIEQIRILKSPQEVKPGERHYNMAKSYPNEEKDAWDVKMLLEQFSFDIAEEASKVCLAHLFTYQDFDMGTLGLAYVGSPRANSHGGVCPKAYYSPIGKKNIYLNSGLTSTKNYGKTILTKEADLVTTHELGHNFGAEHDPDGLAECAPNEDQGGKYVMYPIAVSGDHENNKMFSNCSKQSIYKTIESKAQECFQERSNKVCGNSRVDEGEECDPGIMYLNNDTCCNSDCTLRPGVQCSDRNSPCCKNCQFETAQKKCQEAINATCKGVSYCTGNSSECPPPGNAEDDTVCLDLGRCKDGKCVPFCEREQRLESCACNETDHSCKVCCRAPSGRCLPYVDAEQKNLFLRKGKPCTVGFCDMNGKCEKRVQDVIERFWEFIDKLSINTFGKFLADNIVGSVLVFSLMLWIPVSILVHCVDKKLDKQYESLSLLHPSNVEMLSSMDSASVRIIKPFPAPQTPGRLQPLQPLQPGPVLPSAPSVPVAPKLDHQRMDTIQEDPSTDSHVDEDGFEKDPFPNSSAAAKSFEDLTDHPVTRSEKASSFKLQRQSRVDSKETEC
In test [4] the target is 72 kDa type IV collagenase (Homo sapiens, UniProt P08253).
72 kDa type IV collagenase, sequence (P08253 whole entry): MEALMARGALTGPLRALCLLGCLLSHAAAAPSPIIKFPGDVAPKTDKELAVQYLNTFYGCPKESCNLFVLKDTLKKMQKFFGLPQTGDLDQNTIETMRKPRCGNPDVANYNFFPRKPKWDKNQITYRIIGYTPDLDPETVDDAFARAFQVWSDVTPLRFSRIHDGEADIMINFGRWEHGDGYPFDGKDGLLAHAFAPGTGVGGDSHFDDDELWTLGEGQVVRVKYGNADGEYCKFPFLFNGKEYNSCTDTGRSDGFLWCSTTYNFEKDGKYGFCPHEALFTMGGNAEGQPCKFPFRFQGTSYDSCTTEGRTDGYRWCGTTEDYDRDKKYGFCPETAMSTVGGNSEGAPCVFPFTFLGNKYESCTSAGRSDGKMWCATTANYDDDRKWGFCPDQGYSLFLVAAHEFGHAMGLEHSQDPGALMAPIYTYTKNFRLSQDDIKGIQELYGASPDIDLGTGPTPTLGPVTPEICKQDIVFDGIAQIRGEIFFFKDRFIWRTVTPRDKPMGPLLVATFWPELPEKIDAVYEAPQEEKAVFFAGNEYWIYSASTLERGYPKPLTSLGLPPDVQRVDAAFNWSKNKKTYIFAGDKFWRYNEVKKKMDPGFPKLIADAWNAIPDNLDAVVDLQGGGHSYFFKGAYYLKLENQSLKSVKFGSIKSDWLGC
Description: In vitro inhibition of Matrix metalloprotease-2
Test [5] deals with Matrix metalloproteinase-9 (Homo sapiens, UniProt P14780). The test can be described thus: In vitro inhibition of Matrix metalloprotease-9.
Matrix metalloproteinase-9, sequence (P14780 whole entry): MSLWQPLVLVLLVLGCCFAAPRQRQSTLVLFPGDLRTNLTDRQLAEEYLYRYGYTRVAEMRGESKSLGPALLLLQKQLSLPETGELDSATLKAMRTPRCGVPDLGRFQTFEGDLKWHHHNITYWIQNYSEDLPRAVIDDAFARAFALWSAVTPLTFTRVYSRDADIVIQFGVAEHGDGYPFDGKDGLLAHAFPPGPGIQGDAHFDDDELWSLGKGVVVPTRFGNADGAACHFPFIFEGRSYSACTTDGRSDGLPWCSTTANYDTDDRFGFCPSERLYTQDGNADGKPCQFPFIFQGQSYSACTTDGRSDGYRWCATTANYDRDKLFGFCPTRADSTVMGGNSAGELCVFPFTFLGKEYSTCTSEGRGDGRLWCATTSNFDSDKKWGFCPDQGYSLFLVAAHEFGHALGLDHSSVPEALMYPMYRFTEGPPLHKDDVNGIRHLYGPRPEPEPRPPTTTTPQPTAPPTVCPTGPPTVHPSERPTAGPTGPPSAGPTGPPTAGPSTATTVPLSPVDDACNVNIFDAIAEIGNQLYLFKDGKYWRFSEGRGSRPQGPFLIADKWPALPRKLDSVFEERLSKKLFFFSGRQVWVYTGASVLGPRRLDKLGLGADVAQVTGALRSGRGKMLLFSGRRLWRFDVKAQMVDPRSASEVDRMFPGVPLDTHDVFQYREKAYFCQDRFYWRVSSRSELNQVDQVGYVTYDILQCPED

The term IC50 denotes the point on the concentration scale where inhibition reaches its midpoint. The low end stands for inhibition by little substance, the high end for a need for much substance. As a reminder, the Ki is the equilibrium dissociation constant of an inhibitor or competing ligand from its target. A lower Ki goes with higher affinity.

Disintegrin and metalloproteinase domain-containing protein 17 (Homo sapiens, UniProt P78536), sequence (P78536 whole entry, the tested form may be a part): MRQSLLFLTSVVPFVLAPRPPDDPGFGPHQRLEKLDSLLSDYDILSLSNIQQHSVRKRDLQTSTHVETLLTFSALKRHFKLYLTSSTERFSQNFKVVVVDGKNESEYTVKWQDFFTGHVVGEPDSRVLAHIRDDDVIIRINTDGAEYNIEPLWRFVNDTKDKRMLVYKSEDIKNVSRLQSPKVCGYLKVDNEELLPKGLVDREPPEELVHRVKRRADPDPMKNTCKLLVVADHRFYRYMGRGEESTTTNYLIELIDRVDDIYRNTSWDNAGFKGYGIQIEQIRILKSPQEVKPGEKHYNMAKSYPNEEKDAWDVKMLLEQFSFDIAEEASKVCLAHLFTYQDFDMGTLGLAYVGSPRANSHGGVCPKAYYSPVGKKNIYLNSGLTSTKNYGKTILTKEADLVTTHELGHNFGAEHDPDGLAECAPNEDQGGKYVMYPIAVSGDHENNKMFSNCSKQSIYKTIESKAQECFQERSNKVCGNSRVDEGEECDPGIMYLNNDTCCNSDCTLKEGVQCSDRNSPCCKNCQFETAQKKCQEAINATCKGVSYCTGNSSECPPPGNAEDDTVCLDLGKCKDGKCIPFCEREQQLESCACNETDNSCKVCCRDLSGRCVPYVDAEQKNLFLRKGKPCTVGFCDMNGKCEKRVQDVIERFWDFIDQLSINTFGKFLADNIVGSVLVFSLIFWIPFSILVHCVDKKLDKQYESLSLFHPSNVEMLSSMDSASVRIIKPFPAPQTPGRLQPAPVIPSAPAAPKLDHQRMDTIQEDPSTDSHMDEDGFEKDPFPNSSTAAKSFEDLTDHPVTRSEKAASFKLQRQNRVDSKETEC

With `Cc1cc(COc2ccc(N3CC[C@H]([C@H](NC(=O)OC(C)(C)C)C(=O)NO)C3=O)cc2)cc(C)n1`, the 50% inhibitory concentration (IC50) is over 3000 nM in test [1] and 6 nM in test [3]. For the same compound, the Ki is 2240 nM in test [2] and over 3000 nM in test [4].

As to `Cc1cc(COc2ccc(N3CC[C@H]([C@@H](C(=O)NO)N4CCCC4)C3=O)cc2)c2ccccc2n1`, the IC50 is over 10000 nM in test [1] and 26 nM in test [3]. Further, the inhibitory constant (Ki) in test [5] was over 2000 nM; in test [2] it was over 5000 nM; in test [4], over 3000 nM.

With `Cc1cc(COc2ccc(N3CC[C@](N)(CC(=O)NO)C3=O)cc2)c2ccccc2n1`, the IC50 in test [1] was 4800 nM; in test [3], 5 nM. In addition, the Ki in test [5] was over 2000 nM; in test [2], over 5000 nM; in test [4], over 3000 nM.

On to `Cc1cc(COc2ccc(N3CC[C@H]([C@H](NC(=O)c4ccccc4)C(=O)NO)C3=O)cc2)c2ccccc2n1`, for which the half-maximal inhibitory concentration (IC50) in test [1] came out at 9100 nM; in test [3], 1 nM. Further, the values for the Ki in test [5], in test [2] and in test [4] were over 2000 nM, over 5000 nM and 435 nM, respectively.

Turning to `Cc1cc(COc2ccc(N3CC[C@H]([C@@H](C(=O)NO)N(C)C)C3=O)cc2)c2ccccc2n1`, the half-maximal inhibitory concentration (IC50) in test [1] came out at 1500 nM; in test [3], 7 nM. The Ki is over 2000 nM in test [5], over 5000 nM in test [2] and over 3000 nM in test [4].

With `Cc1cc(COc2ccc(N3CC[C@H]([C@H](N)C(=O)NO)C3=O)cc2)cc(C)n1`, the IC50 in test [1] was over 10000 nM; in test [3] it was 50 nM. Further, the Ki is over 2000 nM in test [5], over 5000 nM in test [2] and over 3000 nM in test [4].

For `Cc1cc(COc2ccc(N3CC[C@H]([C@H](NC(=O)OC(C)(C)C)C(=O)NO)C3=O)cc2)c2ccccc2n1`, the results for the IC50 in test [1] and in test [3] were 420 nM and 1 nM, respectively. In addition, the Ki in test [5] came out at 291 nM; in test [2] it was 788 nM; in test [4], 324 nM.

As for `Cc1cc(COc2ccc(N3CC[C@](N)([C@H](C)C(=O)NO)C3=O)cc2)c2ccccc2n1`, the IC50 in test [1] came out at 1100 nM; in test [3], 2 nM. The figures for the inhibition constant Ki in test [5], in test [2] and in test [4] were over 2000 nM, over 5000 nM and over 3000 nM, respectively.

As to `CCC[C@@H](C(=O)NO)[C@H]1CCN(c2ccc(OCc3cc(C)nc4ccccc34)cc2)C1=O`, the Ki in test [5] is over 2000 nM; in test [2], over 5000 nM; in test [4] it was over 3000 nM. For the same compound, the half-inhibitory concentration (IC50) in test [3] came to 140 nM.

For `CCCCOC(=O)N[C@H](C(=O)NO)[C@H]1CCN(c2ccc(OCc3cc(C)nc4ccccc34)cc2)C1=O`, the figures for the IC50 in test [1] and in test [3] were 6830 nM and 2 nM, respectively. For the same compound, the inhibition constant Ki in test [5] is over 2000 nM; in test [2] it was over 1630 nM; in test [4] it was over 305 nM.

As to `CCC[C@H](C(=O)NO)[C@@]1(N)CCN(c2ccc(OCc3cc(C)nc4ccccc34)cc2)C1=O`, the half-maximal inhibitory concentration (IC50) was over 3000 nM in test [1] and 4 nM in test [3]. In addition, the inhibition constant (Ki) in test [5] was over 2000 nM; in test [2], over 5000 nM; in test [4] it was over 3000 nM.

Take `CCC[C@@H](C(=O)NO)[C@@]1(N)CCN(c2ccc(OCc3cc(C)nc4ccccc34)cc2)C1=O`: the 50% inhibitory concentration (IC50) in test [1] is over 10000 nM; in test [3], 405 nM. The Ki in test [5] was over 2000 nM; in test [2], over 5000 nM; in test [4] it was over 3000 nM.

Take `Cc1cc(COc2ccc(N3CC[C@H]([C@H](NC(=O)C(C)(C)C)C(=O)NO)C3=O)cc2)c2ccccc2n1`: the figures for the IC50 in test [1] and in test [3] were 4950 nM and under 1 nM, respectively. The values for the inhibitory constant (Ki) in test [5], in test [2] and in test [4] were over 2000 nM, over 5000 nM and 1240 nM, respectively.

For `Cc1cc(COc2ccc(N3CC[C@@]([C@H](C)C(=O)NO)(N(C)C)C3=O)cc2)c2ccccc2n1`, the 50% inhibitory concentration (IC50) in test [1] was over 3000 nM; in test [3], 12 nM. Further, the Ki in test [5] is 1300 nM; in test [2] it was over 5000 nM.

In the case of `COC(=O)N[C@H](C(=O)NO)[C@H]1CCN(c2ccc(OCc3cc(C)nc4ccccc34)cc2)C1=O`, the IC50 in test [1] was 2650 nM; in test [3], under 1 nM. Besides, the inhibition constant Ki in test [5] is over 2000 nM; in test [2], over 5000 nM; in test [4], 482 nM.

As for `C[C@@H]([C@H]1CCN(c2ccc(OCc3ccccc3)cc2)C1=O)N(O)C=O`, the IC50 in test [1] was over 10000 nM; in test [3] it was 111 nM. For the same compound, the inhibition constant Ki is over 2000 nM in test [5], over 5000 nM in test [2] and over 567 nM in test [4].

For the compound `Cc1cc(COc2ccc(N3CC[C@H]([C@@H](C)C(=O)NO)C3=O)cc2)c2ccccc2n1`, the IC50 was over 3000 nM in test [1] and 52 nM in test [3]. Besides, the inhibitory constant (Ki) in test [5] is over 2000 nM; in test [2], over 5000 nM; in test [4] it was over 3000 nM.

Regarding `CC(=O)N[C@H](C(=O)NO)[C@H]1CCN(c2ccc(OCc3cc(C)nc4ccccc34)cc2)C1=O`, the IC50 in test [1] was 1560 nM; in test [3], 1 nM. Also, the inhibition constant Ki was over 2000 nM in test [5], over 5000 nM in test [2] and 194 nM in test [4].

As to `Cc1cc(COc2ccc(N3CC[C@H]([C@H](C)C(=O)NO)C3=O)cc2)c2ccccc2n1`, the IC50 in test [1] was 1570 nM; in test [3], 1 nM. Moreover, the Ki in test [5] is over 2000 nM; in test [2] it was over 5000 nM; in test [4] it was over 1270 nM.

As for `Cc1cc(COc2ccc(N3CC[C@H]([C@H](NC(=O)N4CCOCC4)C(=O)NO)C3=O)cc2)c2ccccc2n1`, the IC50 is 840 nM in test [1] and under 1 nM in test [3]. Further, the inhibitory constant (Ki) in test [5] was over 2000 nM; in test [2], over 5000 nM; in test [4], 805 nM.

With `Cc1cc(COc2ccc(N3CC[C@H]([C@H](C)N(O)C=O)C3=O)cc2)c2ccccc2n1`, the IC50 was determined as 8700 nM in test [1] and 2 nM in test [3]. Also, the inhibition constant Ki was over 2000 nM in test [5], over 5000 nM in test [2] and over 3000 nM in test [4].

Consider `Cc1cc(COc2ccc(N3CC[C@H]([C@H](N)C(=O)NO)C3=O)cc2)c2ccccc2n1`, for which the IC50 in test [1] worked out at 1700 nM; in test [3] it was 2 nM. In addition, the results for the inhibitory constant (Ki) in test [5], in test [2] and in test [4] were 1960 nM, over 5000 nM and 446 nM, respectively.

For the compound `Cc1cc(COc2ccc(N3CC[C@H]([C@H](O)C(=O)NO)C3=O)cc2)c2ccccc2n1`, the IC50 in test [1] came out at 2400 nM; in test [3], 3 nM. The inhibition constant Ki in test [5] is over 2000 nM; in test [2], over 5000 nM; in test [4], over 3000 nM.

Values taken from ChEMBL document CHEMBL1136542, “Discovery of N-hydroxy-2-(2-oxo-3-pyrrolidinyl)acetamides as potent and selective inhibitors of tumor necrosis factor-alpha converting enzyme (TACE)” (Bioorg Med Chem Lett, 2003).
